According to patent publication US20230226072A1 (priority 2020, published 2023):

Test system: Influenza A N1H1
Experiment: In vivo antiviral efficacy in Balb/c mice, lung virus titer by TCID50 assay
Conditions: methylene blue replaced by riboflavin; prophylactic and therapeutic application
Description: Mice received a daily MB-dose of 5 mg/kg based on a daily drinking volume of ˜5-6 ml and a body weight of 25-35 g. The control group received drinking water with saccharin but without methylene blue.
Mice were euthanized and lungs were removed on day 3 post challenge with influenza H1N1 virus. These tissue samples were stored at <−60° C. until they were transferred into homogenization tubes containing 1 ml cell medium supplemented with antibiotics. The lungs were homogenized two times at 5000 rpm for twenty seconds with 10 seconds pause between the intervals with a tissue homogenizer. The infectious H1N1 virus titer in homogenized lung samples was determined by a TCID50 assay performed by titration on Madin-Darby Canine Kidney (MDCK) cells as described above.

Compound: Cc1cc2nc3c(=O)[nH]c(=O)nc-3n(C[C@H](O)[C@H](O)[C@H](O)CO)c2cc1C [riboflavin, 7,8-dimethyl-10-[(2S,3S,4R)-2,3,4,5-tetrahydroxypentyl]benzo[g]pteridine-2,4-dione]
- viricidal efficacy, lung virus titer (TCID50 assay), expected: Analogous results are expected
